Results as given in the NIST ThermoML archive (doi:10.1016/j.tca.2018.07.026).
Where “and” joins values, the source holds several entries; their conditions need not be identical. Identical values can stand only once.

Columns and labels:
[1] = for vapor or sublimation pressure: Liquid, Transpiration method
[2] = Molar enthalpy of transition or fusion; details: Crystal; DSC
[3] = molar heat capacity at constant pressure; details: 101.33 kPa, Crystal, DSC

N#Cc1cccc2ccccc12 [1-cyanonaphthalene]
Details	molar heat capacity at constant pressure	vapor or sublimation pressure [kPa]
[1], 317.4 K	–	0.00232
[1], 321.3 K	–	0.00324
[1], 323.2 K	–	0.00381
[1], 326.3 K	–	0.00461
[1], 328.2 K	–	0.00556
[1], 331.2 K	–	0.00702
[1], 333.3 K	–	0.00785
[1], 335.2 K	–	0.00943
[1], 338.2 K	–	0.0116
[1], 340.2 K	–	0.01358
[1], 343.2 K	–	0.01719
[1], 345.1 K	–	0.01921
[1], 348.1 K	–	0.02329
[1], 351.1 K	–	0.02893
[1], 353.2 K	–	0.03229
[3], 268.9 K	144.7 J/K/mol and 156.8 J/K/mol	–
[3], 269.3 K	148.8 J/K/mol and 159.1 J/K/mol	–
[3], 269.7 K	152.4 J/K/mol and 161.1 J/K/mol	–
[3], 270.1 K	155.6 J/K/mol and 162.6 J/K/mol	–
[3], 270.5 K	158.2 J/K/mol and 164.1 J/K/mol	–
[3], 270.9 K	160.6 J/K/mol and 165.4 J/K/mol	–
[3], 271.3 K	162.5 J/K/mol and 166.5 J/K/mol	–
[3], 271.7 K	164.3 J/K/mol and 167.5 J/K/mol	–
[3], 272.1 K	168.4 J/K/mol and 165.9 J/K/mol	–
[3], 272.5 K	169.2 J/K/mol and 167.2 J/K/mol	–
[3], 272.9 K	168.6 J/K/mol and 170 J/K/mol	–
[3], 273.3 K	169.6 J/K/mol and 170.8 J/K/mol	–
[3], 273.6 K	170.5 J/K/mol and 171.4 J/K/mol	–
[3], 274 K	171.5 J/K/mol and 172.1 J/K/mol	–
[3], 274.4 K	172.1 J/K/mol and 172.7 J/K/mol	–
[3], 274.8 K	172.9 J/K/mol and 173.4 J/K/mol	–
[3], 275.2 K	173.5 J/K/mol and 173.9 J/K/mol	–
[3], 275.5 K	174.2 J/K/mol and 174.4 J/K/mol	–
[3], 275.9 K	174.6 J/K/mol and 174.9 J/K/mol	–
[3], 276.3 K	175.1 J/K/mol and 175.4 J/K/mol	–
[3], 276.7 K	175.5 J/K/mol and 175.6 J/K/mol	–
[3], 277 K	175.9 J/K/mol	–
[3], 277.1 K	175.7 J/K/mol	–
[3], 277.4 K	176 J/K/mol and 176.3 J/K/mol	–
[3], 277.8 K	176.2 J/K/mol and 176.6 J/K/mol	–
[3], 278.2 K	177 J/K/mol and 176.6 J/K/mol	–
[3], 278.5 K	177.5 J/K/mol and 177.1 J/K/mol	–
[3], 278.9 K	177.9 J/K/mol and 177.6 J/K/mol	–
[3], 279.3 K	178.4 J/K/mol and 178.1 J/K/mol	–
[3], 279.6 K	179 J/K/mol and 178.7 J/K/mol	–
[3], 280 K	179.6 J/K/mol and 179.5 J/K/mol	–
[3], 280.4 K	180.4 J/K/mol and 180.3 J/K/mol	–
[3], 280.7 K	181.1 J/K/mol	–
[3], 280.8 K	181.2 J/K/mol	–
[3], 281.1 K	181.9 J/K/mol and 182 J/K/mol	–
[3], 281.5 K	182.8 J/K/mol and 182.9 J/K/mol	–
[3], 281.8 K	183.7 J/K/mol	–
[3], 281.9 K	183.8 J/K/mol	–
[3], 282.2 K	184.7 J/K/mol and 184.8 J/K/mol	–
[3], 282.6 K	185.7 J/K/mol and 185.8 J/K/mol	–
[3], 282.9 K	186.7 J/K/mol and 186.6 J/K/mol	–
[3], 283.3 K	187.9 J/K/mol and 187.6 J/K/mol	–
[3], 283.7 K	188.9 J/K/mol and 188.4 J/K/mol	–
[3], 284 K	190 J/K/mol and 189 J/K/mol	–
[3], 284.4 K	190.9 J/K/mol and 189.8 J/K/mol	–
[3], 284.8 K	191.7 J/K/mol and 190.3 J/K/mol	–
[3], 285.1 K	192.3 J/K/mol and 190.7 J/K/mol	–
[3], 285.5 K	192.8 J/K/mol and 191 J/K/mol	–
[3], 285.9 K	193.1 J/K/mol and 191.4 J/K/mol	–
[3], 286.2 K	193.2 J/K/mol and 191.6 J/K/mol	–
[3], 286.6 K	193.3 J/K/mol and 191.7 J/K/mol	–
[3], 286.9 K	193.2 J/K/mol and 192 J/K/mol	–
[3], 287.3 K	193.3 J/K/mol and 192.4 J/K/mol	–
[3], 287.7 K	193.2 J/K/mol and 192.6 J/K/mol	–
[3], 288 K	193 J/K/mol	–
[3], 288.4 K	192.8 J/K/mol and 193.1 J/K/mol	–
[3], 288.8 K	192.4 J/K/mol and 193.1 J/K/mol	–
[3], 289.1 K	192.1 J/K/mol and 193.1 J/K/mol	–
[3], 289.5 K	191.7 J/K/mol and 193.1 J/K/mol	–
[3], 289.8 K	191.4 J/K/mol and 193.1 J/K/mol	–
[3], 290.2 K	191.3 J/K/mol and 193 J/K/mol	–
[3], 290.6 K	191.3 J/K/mol and 192.9 J/K/mol	–
[3], 290.9 K	191.6 J/K/mol and 192.9 J/K/mol	–
[3], 291.3 K	191.9 J/K/mol and 192.9 J/K/mol	–
[3], 291.7 K	192.2 J/K/mol and 193.1 J/K/mol	–
[3], 292 K	192.7 J/K/mol and 193.5 J/K/mol	–
[3], 292.4 K	193.3 J/K/mol and 193.6 J/K/mol	–
[3], 292.8 K	193.8 J/K/mol and 194.2 J/K/mol	–
[3], 293.1 K	194.5 J/K/mol and 194.6 J/K/mol	–
[3], 293.5 K	195.3 J/K/mol and 195.4 J/K/mol	–
[3], 293.8 K	196.1 J/K/mol	–
[3], 294.2 K	196.8 J/K/mol and 196.7 J/K/mol	–
[3], 294.6 K	197.8 J/K/mol and 197.4 J/K/mol	–
[3], 294.9 K	198.7 J/K/mol and 198.1 J/K/mol	–
[3], 295.3 K	199.6 J/K/mol and 198.9 J/K/mol	–
[3], 295.7 K	200.6 J/K/mol and 199.8 J/K/mol	–
[3], 296 K	201.6 J/K/mol and 200.6 J/K/mol	–
[3], 296.4 K	202.5 J/K/mol and 201.7 J/K/mol	–
[3], 296.8 K	203.6 J/K/mol and 202.9 J/K/mol	–

Details	Normal melting temperature [°C]
[1], Crystal, DTA	34

Details	Molar enthalpy of transition or fusion [kcal/mol]
[2]	4.16
